Reference: patent US5688943A, “Benzodiazepine derivatives useful as CCK-receptor antagonists” (Yamanouchi Pharmaceutical Co., Ltd., priority 1992, dated 1997)

Legend:
[1] = test system: pentagastrin-stimulated gastric acid secretion; assay: Measurement of inhibition of pentagastrin-stimulated gastric acid secretion in rat; assay type: in vivo; conditions: anaesthetised rat, test drug intravenous, pentagastrin 15 μg/Kg/hr i.v.; read-out: ED50, reduction of pentagastrin-stimulated gastric acid secretion to 50% of the maximum level
Source text: Measurement of inhibition of pentagastrin-stimulated gastric acid secretion in rat
A cannula was inserted into the trachea of a rat anaesthetised with urethane (intraperitoneally administered, 1.25 g/Kg), its abdominal wall was incised to expose the gastric and duodenal portions, and a polyethylene cannula was set in the anterior stomach after ligation of the cardia. The duodenum was then subjected to slight section, a polyethylene cannula was inserted from the incised portion toward the stomach, and the pylorus was ligated to fix the cannula.
Physiological saline (with pH adjusted to 7.0) was perfused from the anterior stomach toward the pylorus at a rate of 3 ml/min, and the gastric-acid secretion was measured by continuous titration of the perfusate by the use of a pH-stat (AUT-201; product of Toa Electronics, Ltd.). The continuous titration was carried out by using 25 mM NaOH solution until the pH reached 7.0, and the result was expressed as the amount of gastric acid secreted for every 10 minutes (μEq /10 min.). Pentagastrin was intravenously administered at a rate of 15 μg/Kg/hr.
The secretion of gastric acid increased upon administration of pentagastrin, reaching the maximum level after 60 minutes and stably maintaining this level after that. A test drug was then intravenously administered, and the secretion of gastric acid was measured; ED50 values were determined, being the amount of the drug required to reduce the amount of secreted gastic acid down to 50% of the maximum level.

CCK-B receptors = target: T1, CCK-B receptors (Rattus norvegicus, UniProt P30553); assay: Measurement of binding affinity for CCK-B receptors ([125I]BH-CCK-8, rat brain membranes); set-up: species or system SD rats; conditions: ratio IC50 (CCK-A)/IC50 (CCK-B)
T1 construct: the whole brain was immediately excised from each of the rats and homogenized; from tissue; host or cells: SD rat whole brain membranes
T1 sequence (P30553 whole entry): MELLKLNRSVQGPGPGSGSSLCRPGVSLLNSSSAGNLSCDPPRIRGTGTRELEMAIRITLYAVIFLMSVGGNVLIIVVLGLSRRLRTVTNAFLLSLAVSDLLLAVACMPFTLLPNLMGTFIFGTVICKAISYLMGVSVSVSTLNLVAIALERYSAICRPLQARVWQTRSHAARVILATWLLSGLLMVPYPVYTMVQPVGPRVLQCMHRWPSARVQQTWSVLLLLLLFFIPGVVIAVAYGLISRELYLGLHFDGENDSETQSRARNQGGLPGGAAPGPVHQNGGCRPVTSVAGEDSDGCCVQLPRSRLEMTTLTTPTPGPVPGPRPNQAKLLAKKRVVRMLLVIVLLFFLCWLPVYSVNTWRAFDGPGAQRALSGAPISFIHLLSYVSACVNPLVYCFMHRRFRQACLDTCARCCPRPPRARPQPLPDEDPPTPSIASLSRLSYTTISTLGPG
Protocol: Measurement of binding affinity for CCK-B receptors
About 100 SD rats were decapitated without anaesthesia, the whole brain was immediately excised from each of the rats and homogenized in 10-fold volume of 0.32M aqueous solution of sucrose by the use of a Teflon-coated homogenizer, the homogenate thus obtained was centrifuged for ten minutes at 900 g by the use of a cooled centrifuge, and the supernatant was further centrifuged for 15 minutes at 11500 g. The precipitate thus obtained was dispersed in 50 mM Tris-HCl buffer (pH 7.4) containing 0.08% Triton X-100, this suspension was allowed to stand for 30 minutes and again centrifuged for 15 minutes at 11500 g, the precipitate thus obtained was washed twice with 5 mM Tris-HCl buffer and twice with 50 mM Tris-HCl buffer in that order with centrifugal separation, the washed precipitate was suspended in 50 mM Tris-HCl buffer, and the suspension thus obtained was stored at -80° C. until the membrane preparation was required.
The membrane preparations were warmed to room temperature, diluted with 10 mM HEPES buffer (containing 130 mM NaCl, 5 mM MgCl2, 1 mM EGTA and 0.25 mg/ml bacitracin; pH 6.5) and incubated at 25° C. for 120 minutes in the presence of [^125 I]BH-CCK-8 and the test compound, then separated by suction filtration. Non-specific binding was determined in the presence of 1 μM CCK-8. The amount of labelled ligand bound to the receptor was measured by the use of a γ-counter; IC50 values were determined, being that concentration of test compound required to inhibit specific binding by 50%.
(§1) A high affinity for the CCK-A receptor in a gastrin/CCK-B antagonist is thought to be undesirable as it may lead to side-effects such as cholestasis and gall stone formation during therapy. Therefore it is preferable for the therapeutic agent to be selective for the CCK-B receptor. This selectivity is expressed by the ratio IC50 (CCK-A)/IC50 (CCK-B); the higher the value of this ratio the better is the selectivity.

CCK-A receptors = target: T2, CCK-A receptors (Rattus norvegicus, UniProt P30551); assay: Measurement of binding affinity for CCK-A receptors ([3H]L-364,718, rat pancreas membranes); set-up: species or system SD rat; conditions: [3H]L-364,718, 37° C., 30 minutes, read-out: Receptor binding affinity IC50, CCK-A
T2 construct: The pancreas of an SD rat was homogenized; from tissue; host or cells: SD rat pancreas membranes
T2 sequence (P30551 1-444): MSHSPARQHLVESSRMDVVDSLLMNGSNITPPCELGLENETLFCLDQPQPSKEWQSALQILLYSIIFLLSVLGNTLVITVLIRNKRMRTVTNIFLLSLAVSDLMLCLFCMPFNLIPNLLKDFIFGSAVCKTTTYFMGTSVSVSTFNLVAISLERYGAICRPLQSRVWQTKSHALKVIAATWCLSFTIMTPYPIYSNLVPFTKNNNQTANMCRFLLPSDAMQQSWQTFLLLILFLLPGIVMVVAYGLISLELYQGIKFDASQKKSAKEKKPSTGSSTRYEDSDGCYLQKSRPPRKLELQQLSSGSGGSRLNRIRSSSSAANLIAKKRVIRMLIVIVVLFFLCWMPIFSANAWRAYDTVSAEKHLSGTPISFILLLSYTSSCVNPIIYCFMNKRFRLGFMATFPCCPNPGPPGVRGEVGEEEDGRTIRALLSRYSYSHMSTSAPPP
Protocol: Measurement of binding affinity for CCK-A receptors
The pancreas of an SD rat was homogenized in a 20-fold volume of 50 mM Tris-HCl buffer (pH 7.7) by the use of a Polytrone-type homogenizer, the homogenate was twice centrifuged for 10 minutes at 50000 g by the use of an ultra-centrifuge, the precipitate thus obtained was suspended in a 40-fold volume of 50 mM Tris-HCl buffer (containing 0.2% BSA, 5 mM MgCl2, 0.1 mg/ml bacitracin and 5 mM DTT; pH 7.7), and the suspension was stored at -80° C. until the membrane preparations were required.
The membrane preparations were then warmed to room temperature, diluted 1:10 with the buffer and incubated at 37° C. for 30 minutes in the presence of [^3 H]L-364,718 and the test compound then separated by suction filtration. Non-specific binding was determined in the presence of 1 μM L-364,718. The amount of labelled ligand bound to the receptor was measured by the use of a liquid scintillation counter; IC50 values were determined, being that concentration of test compound required to inhibit specific binding by 50%
as §1

SMILES | ED50 [1] [µmol/kg] | A/B Ratio (CCK-B receptors) | IC50 (CCK-A receptors) [µM]
Cc1cccc(NC(=O)N[C@@H]2N=C(c3ccccc3)c3ccccc3N(C)C2=O)c1 [reference compound] | 4.2 | – | –
Cc1cccc(NC(=O)NC2N=C(c3ccccc3)c3ccccc3N(CC(=O)C3CCCC3)C2=O)c1 (racemic) [Example 4, N-((3RS)-1-Cyclopentylcarbonylmethyl-2,3-dihydro-2-oxo-5-phenyl-1H-1,4-benzodiazepin-3-yl)-N'-(3-methylphenyl)urea] | 0.016 | 1,900 | 0.44
Cc1cccc(NC(=O)NC2N=C(c3ccccc3)c3ccccc3N(CC(=O)C3CCCCC3)C2=O)c1 (racemic) [Example 7, N-((3RS)-1-Cyclohexylcarbonylmethyl-2,3-dihydro-2-oxo-5-phenyl-1H-1,4-benzodiazepin-3-yl)-N'-(3-methylphenyl)urea] | 0.047 | – | –
Cc1cccc(NC(=O)NC2N=C(c3ccccc3)c3ccccc3N(CC(=O)C3CCCCCC3)C2=O)c1 (racemic) [Example 5, N-((3RS)-1-Cycloheptylcarbonylmethyl-2,3-dihydro-2-oxo-5-phenyl-1H-1,4-benzodiazepin-3-yl)-N'-(3-methylphenyl)urea] | 0.018 | – | –
